Experimental findings from patent US11046691B1 (IDEAYA BIOSCIENCES, INC., priority 2018, dated 2021) are described below.

Where only a bound is given, the exact number is not on record here.

As usually defined, the IC50 is the concentration that gives 50% inhibition. Read a high IC50 as lower potency.

Sequence of hMAT2A (P31153 whole entry): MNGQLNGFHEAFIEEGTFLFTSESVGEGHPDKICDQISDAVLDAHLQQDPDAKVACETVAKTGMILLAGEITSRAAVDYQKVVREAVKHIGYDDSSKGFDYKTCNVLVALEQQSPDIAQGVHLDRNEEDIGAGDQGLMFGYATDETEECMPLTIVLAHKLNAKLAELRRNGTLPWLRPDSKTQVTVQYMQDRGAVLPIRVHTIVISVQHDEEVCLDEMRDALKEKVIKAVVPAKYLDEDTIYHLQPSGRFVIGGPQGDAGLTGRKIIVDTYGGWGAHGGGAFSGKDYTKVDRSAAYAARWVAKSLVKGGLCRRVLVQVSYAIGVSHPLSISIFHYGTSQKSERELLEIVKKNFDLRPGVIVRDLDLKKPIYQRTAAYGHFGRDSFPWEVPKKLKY

One experiment concerns the target hMAT2A (Homo sapiens (Human), UniProt P31153). In words: Phosphate Sensor Fluorescence Assay (MAT2A enzyme inhibition). As to conditions: L-methionine 500 uM, ATP 500 uM, class symbols. The format is biochemical. The method, boiled down: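 Recombinant MAT2A preincubated 15 min at room temperature with compound, then reacted 1 h at room temperature with 500 uM L-methionine and 500 uM ATP in Tris pH 7.5 buffer containing PNP/7-MEG.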
On to `CNc1nc(=O)n(-c2ccccc2)c2cc(Cl)cc(OCCN)c12` [Example 402, 5-(2-aminoethoxy)-7-chloro-4-(methyl-amino)-1-phenylhydroquinazolin-2-one], for which the IC50 lay in the range of 500 to 1000 nM.

Take `CS(=O)(=O)CCNc1nc(=O)n(-c2ccccc2Cl)c2cc(C3CC3)c(C#N)cc12` [Example 403, 1-(2-chlorophenyl)-7-cyclopropyl-4-((2-(methylsulfonyl)ethyl)amino)-2-oxo-1,2-dihydroquinazoline-6-carbonitrile]: the IC50 lay within 1000 to 10000 nM.

On to `CNc1nc(=O)n(-c2ccccc2C)c2cc(Cl)cc(OC)c12` [Example 329, 7-chloro-5-methoxy-4-(methylamino)-1-(2-methylphenyl)hydroquinazolin-2-one], for which the IC50 is below 200 nM.

In turn, `O=c1nc(NCC(F)F)c2ccc(C(F)(F)F)cc2n1-c1ccccc1Cl` [Example 100, 1-(2-chlorophenyl)-4-[(2,2-difluoro-ethyl)amino]-7-(trifluoromethyl)hy-droquinazolin-2-one] came in with an IC50 below 200 nM.

Molecule `Cc1nc(=O)n(-c2ccccc2)c2cc(Cl)ccc12` [Example 242, 7-chloro-4-methyl-1-phenylhydro-quinazolin-2-one] gave an IC50 of 500 to 1000 nM.

`CNc1nc(=O)n(-c2ccccc2)c2nc(C(C)C)ccc12` [Example 414, 4-(methylamino)-7-(methylethyl)-1-phenylpyrido[2,3-d]pyrimidin-2(1H)-2-one] returned an IC50 below 200 nM.

As for `N#Cc1cc2c(NCC3CCO3)nc(=O)n(-c3ccccc3Cl)c2cc1C1CC1` (centres unmarked) [Example 408, 1-(2-chlorophenyl)-7-cyclopropyl-4-((oxetan-2-ylmethyl)amino)-2-oxo-1,2-dihydroquinazoline-6-carbonitrile], the IC50 fell in the range of 500 to 1000 nM.

Consider `CNc1nc(=O)n(-c2ccccc2Cl)c2cc(C3CC3)cc(OC(F)F)c12` [Example 406, 5-(difluoromethoxy)-1-(2-chlorophenyl)-7-cyclopropyl-4-(methylamino)hydro-quinazolin-2-one], for which the IC50 was 200 to 500 nM.

Molecule `CNc1nc(=O)n(-c2ccn[nH]2)c2cc(Cl)ccc12` [Example 214, 7-chloro-4-(methylamino)-1-pyrazol-5-ylhydroquinazolin-2-one] had an IC50 below 200 nM.

In turn, `CNc1nc(=O)n(-c2cccc(O)c2C)c2cc(Cl)ccc12` [Example 157, 7-chloro-1-(3-hydroxy-2-methylphenyl)-4-(methylamino)hydroquinazolin-2-one] showed an IC50 below 200 nM.

Turning to `O=c1nc(NC23CC(O)(C2)C3)c2ccc(C(F)(F)F)nc2n1-c1ccccc1Cl` [Example 297, 1-(2-chlorophenyl)-4-[(3-hydroxy-bicyclo[1.1.1]pentyl)amino]-7-(trifluoro-methyl)-pyrido[2,3-d]pyrimidin-2(1H)-one], the IC50 was below 200 nM.

In turn, `C#Cc1ccc2c(NC)nc(=O)n(-c3ccccc3)c2c1` [Example 394, 7-ethynyl-4-(methylamino)-1-phenyl-hydroquinazolin-2-one] showed an IC50 below 200 nM.

Molecule `O=c1nc(NCC2CC2)c2ccc(C(F)(F)F)nc2n1-c1ccccc1Cl` [Example 246] registered an IC50 below 200 nM.

The molecule `O=c1nc(N[C@H]2C[C@H]2F)c2ccc(C(F)(F)F)cc2n1-c1ccccc1` [Example 424, 4-(((1S,2R)-2-fluorocyclopropyl)amino)-1-phenyl-7-(trifluoromethyl)quinazolin-2(1H)-one] displayed an IC50 below 200 nM.

The molecule `Cc1ccncc1-n1c(=O)[nH]c(=O)c2ccc(C(F)(F)F)nc21` [Example 365, 1-(4-methylpyridin-3-yl)-7-(trifluoro-methyl)pyrido[2,3-d]pyrimidine-2,4(1H,3H)-dione] yielded an IC50 below 200 nM.

In turn, `CN(CC(F)(F)F)c1nc(=O)n(-c2ccccc2)c2cc(Cl)ccc12` [Example 237, 7-chloro-4-[methyl(2,2,2-trifluoroethyl)-amino]-1-phenylhydroquinazolin-2-one] displayed an IC50 below 200 nM.

The molecule `Nc1nc(=O)n(-c2ccccc2)c2cc(C(F)(F)F)ccc12` [Example 146, 4-amino-1-phenyl-7-(trifluoromethyl)-hydroquinazolin-2-one] came in with an IC50 below 200 nM.

In turn, `O=c1nc(NCC2CCO2)c2ccc(C(F)(F)F)nc2n1-c1ccccc1Cl` (centres unmarked) [Example 271, 1-(2-chlorophenyl)-4-[(oxetan-2-ylmethyl)amino]-7-(trifluoromethyl)-pyrido[2,3-d]pyrimidin-2(1H)-one] came in with an IC50 below 200 nM.

The molecule `CNc1nc(=O)n(-c2ccccc2Cl)c2nc(C(F)(F)F)ccc12` [Example 178, 1-(2-chlorophenyl)-4-(methylamino)-7-(trifluoromethyl)pyrido[2,3-d]pyrimidin-2(1H)-one] returned an IC50 below 200 nM.

As for `CNC(=O)C1CN(c2nc(=O)n(-c3ccccc3)c3cc(Cl)ccc23)C1` [Example 204, 1-(7-chloro-2-oxo-1-phenyl-1,2-dihydroquinazolin-4-yl)-N-methyl-azetidine-3-carboxamide], the IC50 was below 200 nM.

On to `N#Cc1cccc(-n2c(=O)nc(N3CC(O)C3)c3ccc(C(F)(F)F)nc32)c1` [Example 162, 3-(4-(3-hydroxyazetidin-1-yl)-2-oxo-7-(trifluoromethyl)pyrido[2,3-d]pyrimidin-1(2H)-yl)benzonitrile], for which the IC50 was below 200 nM.

For the molecule `O=c1nc(N2CCSC2)c2ccc(C(F)(F)F)nc2n1-c1ccccc1` [Example 346, 1-phenyl-4-(1,3-thiazolidin-3-yl)-7-(trifluoromethyl) pyrido[2,3-d]-pyrimidin-2(1H)-one], the half-maximal inhibitory concentration (IC50) is below 200 nM.

Regarding `CS(=O)(=O)Nc1nc(=O)n(-c2ccccc2)c2cc(Cl)ccc12` [Example 200, N-(7-chloro-2-oxo-1-phenyl-1,2-dihydroquinazolin-4-yl)methane-sulfonamide], the IC50 lay within 1000 to 10000 nM.

Molecule `O=c1nc(N[C@@H]2CC[C@@H]2O)c2ccc(C(F)(F)F)nc2n1-c1ccccc1Cl` (atropisomer, axis not shown; (Sa)) [Example 335, 4-[((2S,1R)-2-hydroxycyclobutyl)-amino]-(1Sa)-(2-chlorophenyl)-7-(trifluoromethyl)hydro-pyrido[2,3-d]-pyrimidin-2(1H)-one] showed an IC50 below 200 nM.

Turning to `CNc1nc(=O)n(-c2cccc(C#N)c2)c2cc(C(F)(F)F)ccc12` [Example 142, 3[4-(methylamino)-2-oxo-7-(trifluoro-methyl)hydroquinazolinyl]benzene-carbonitrile], the IC50 is below 200 nM.

Take `CNc1nc(=O)n(-c2ncccc2C)c2nc(C(F)(F)F)ccc12` [Example 260, 1-(3-methyl(2-pyridyl))-4-(methyl-amino)-7-(trifluoromethyl)pyrido[2,3-d]-pyrimidin-2(1H)-one]: the IC50 is below 200 nM.

For `CNc1nc(=O)n(-c2ccnc(OC)c2)c2nc(C(F)(F)F)ccc12` [Example 90, 1-(2-methoxypyridin-4-yl)-4-(methyl-amino)-7-(trifluoromethyl)pyrido[2,3-d]-pyrimidin-2(1H)-one], the IC50 is 200 to 500 nM.

`CC1(Nc2nc(=O)n(-c3ccccc3Cl)c3nc(C(F)(F)F)ccc23)CCC1` [Example 319] displayed an IC50 below 200 nM.

With `N#Cc1cccc(-n2c(=O)nc(N)c3ccc(C(F)(F)F)cc32)c1` [Example 140, 3-[4-amino-2-oxo-7-(trifluoromethyl)-hydroquinazolinyl]benzenecarbonitrile], the IC50 was below 200 nM.

`O=c1nc(O)c2ccc(Cl)cc2n1-c1ccc2[nH]ncc2c1` [Example 357, 1-(1H-indazol-5-yl)-7-chloro-4-hydroxy-hydroquinazolin-2-one] showed an IC50 of 1000 to 10000 nM.

In turn, `CCCc1ccc2c(NC)nc(=O)n(-c3ccccc3)c2c1` [Example 97, 4-(methylamino)-1-phenyl-7-propylhydroquinazolin-2-one] came in with an IC50 below 200 nM.

Take `C[C@H](O)CNc1nc(=O)n(-c2ccccc2Cl)c2nc(C(F)(F)F)ccc12` [Example 293, 4-[((2S)-2-hydroxypropyl)amino]-1-(2-chlorophenyl)-7-(trifluoromethyl)-pyrido[2,3-d]pyrimidin-2(1H)-one]: the IC50 is below 200 nM.

For the molecule `Nc1nc(=O)n(-c2ccccc2)c2cc(Br)ccc12` [Example 163, 4-amino-7-bromo-1-phenylhydro-quinazolin-2-one], the IC50 is below 200 nM.

As for `CNc1nc(=O)n(-c2cccc(C(F)F)c2)c2cc(Cl)ccc12` [Example 355], the IC50 is below 200 nM.

`CNc1nc(=O)n(-c2ccc3nccn3c2)c2cc(Cl)ccc12` [Example 251, 7-chloro-1-(4-hydroimidazo[1,2-a]-pyridin-6-yl)-4-(methylamino)hydro-quinazolin-2-one] gave an IC50 of 1000 to 10000 nM.

`O=c1nc(N[C@H]2CC[C@@H]2O)c2ccc(C(F)(F)F)nc2n1-c1ccccc1Cl` (atropisomer, axis not shown; (Sa)) [Example 337, 4-[((1S,2 S)-2-hydroxycyclobutyl)-amino]-(1Sa)-(2-chlorophenyl)-7-(trifluoromethyl)hydro-pyridino [2,3-d]-pyrimidin-2-one]: the IC50 was below 200 nM.

Staying with this experiment, now noted: L-methionine 500 uM, ATP 500 uM, numeric bound.
Molecule `Cn1ccnc1-n1c(=O)[nH]c(=O)c2ccc(Cl)cc21` [Example 215, 7-chloro-1-(1-methylimidazol-2-yl)-1,3-dihydroquinazoline-2,4-dione] returned an IC50 above 10000 nM.

Take `CNc1nc(=O)n(-c2ccccc2)c2cc(C)cnc12` [Example 192, 7-methyl-4-(methylamino)-1-phenyl-pyrido[3,2-d]pyrimidin-2(1H)-one]: the IC50 was above 10000 nM.

`O=c1[nH]c(=O)n(-c2ccc(O)cc2)c2cc(Cl)ccc12` [Example 229, 7-chloro-1-(4-hydroxyphenyl)-1,3-dihydroquinazoline-2,4-dione]: the IC50 was above 10000 nM.

`CCC(C)c1ccc2c(NC)nc(=O)n(-c3ccccc3)c2c1` (centres unmarked) [Example 382, 4-(methylamino)-7-(methylpropyl)-1-phenylhydroquinazolin-2-one] came in with an IC50 above 10000 nM.

Consider `CNc1nc(=O)n(-c2cnccc2O)c2nc(C(F)(F)F)ccc12` [Example 392, 1-(4-hydroxypyridin-3-yl)-4-(methyl-amino)-7-(trifluoromethyl)pyrido[2,3-d]-pyrimidin-2(1H)-one], for which the IC50 is above 10000 nM.
